Measured values: US8327467B2, “Anthranilic acid derivative or salt thereof” (Toyama Chemical Co., Ltd., priority 2005, dated 2012)
Structures can show the parent of a compound that is named as a salt.

Test system: MMP-13
Assay: MMP-13 production inhibition test
Assay type: cell-based
Details: 30 μmol/L; human cartilage derived cell line SW1353, IL-1β 10 ng/mL, 16 hours after stimulation, MMP-13 in culture supernatant by ELISA; read-out: Inhibition rate (%) at 30 μmol/L
Description: MMP-13 Production Inhibition Test
6.8×10^3 human cartilage derived cell line SW1353 cells were suspended in 100 μL of Dulbecco modified Eagle's medium supplemented with 10% fetal calf serum, plated on 96-well plates and cultured for 3 days. After the culture medium was changed to Dulbecco modified Eagle's medium containing 0.2% lactalbumin hydrolysate and the cells were cultured for 6 hours, test compounds were added and then IL-1β was added to obtain the final concentration of 10 ng/mL 1 hour later. 16 hours after the stimulation, supernatant was collected and the amount of MMP-13 in the culture supernatant was determined with an ELISA kit (Amersham). The inhibition rate was calculated from the amount of MMP-13 in the presence of a test compound assuming that the amount of MMP-13 was 100% in the absence of the test compound.

| Compound | inhibition at 30 µM [%] |
| --- | --- |
| COc1ccccc1-c1ccc(C(=O)O)c(Nc2ccc(F)cc2)c1 [Example 3, 2-(4-fluoroanilino)-4-(2-methoxyphenyl)benzoic acid] | 53 |
| O=C(O)c1ccc(-c2ccc3c(c2)OCO3)cc1Nc1ccc(F)cc1 [Example 7, 4-(Benzo-1,3-dioxol-5-yl)-2-(4-fluoroanilino)benzoic acid] | 95 |
| COc1ccc(-c2ccc(C(=O)O)c(Nc3ccc(F)cc3)c2)cc1 [Example 9, 2-(4-fluoroanilino)-4-(4-methoxyphenyl)benzoic acid] | 93 |
| CS(=O)(=O)c1ccc(-c2ccc(C(=O)O)c(Nc3ccc(F)cc3)c2)cc1 [Example 11, 2-(4-fluoroanilino)-4-(4-(methanesulfonyl)phenyl)benzoic acid] | 62 |
| CS(=O)(=O)Nc1ccc(-c2ccc(C(=O)O)c(Nc3ccc(F)cc3)c2)cc1 [Example 12, 2-(4-Fluoroanilino)-4-(4-(methanesulfonamido)phenyl)benzoic acid] | 75 |
| O=C(O)c1ccc(-c2ccc3[nH]ccc3c2)cc1Nc1ccc(F)cc1 [Example 13, 2-(4-Fluoroanilino)-4-(1H-indol-5-yl)benzoic acid] | 95 |
| CC(=O)c1ccc(-c2ccc(C(=O)O)c(Nc3ccc(F)cc3)c2)cc1 [Example 15, 4-(4-Acetylphenyl)-2-(4-fluoroanilino)benzoic acid] | 91 |
| O=C(O)c1ccc(-c2ccccc2)cc1Nc1ccc(F)cc1 [Example 37, 2-(4-fluoroanilino)-4-phenylbenzoic acid] | 92 |
| O=C(O)c1ccc(Oc2ccccc2)cc1Nc1ccc2c(c1)OCO2 [Example 43, 2-((Benzo-1,3-dioxol-5-yl)amino)-4-phenoxybenzoic acid] | 93 |
| COc1ccc(Nc2cc(Oc3ccccc3)ccc2C(=O)O)c(OC)c1 [Example 45, 2-(2,4-Dimethoxyanilino)-4-phenoxybenzoic acid] | 73 |
| O=C(O)c1ccc(Oc2ccccc2)cc1Nc1ccccc1 [Example 46, 2-Anilino-4-phenoxybenzoic acid] | 93 |
| O=C(O)c1ccc(Oc2ccccc2)cc1NC1CCCCC1 [Example 48, 2-(cyclohexylamino)-4-phenoxybenzoic acid] | 85 |
| O=C(O)c1ccc(Oc2ccccc2)cc1NCc1ccc(F)cc1 [Example 49, 2-(4-Fluorobenzylamino)-4-phenoxybenzoic acid] | 85 |
| O=C(O)c1ccc(Oc2ccccc2)cc1NCc1ccccc1 [Example 52, 2-(benzylamino)-4-phenoxybenzoic acid] | 77 |
| O=C(O)c1ccc(Nc2ccccc2)cc1Nc1ccc(F)cc1 [Example 63, 4-anilino-2-(4-fluoroanilino)benzoic acid] | 67 |
| O=C(O)c1ccc(NCc2ccccc2)cc1Nc1ccc(F)cc1 [Example 67, 4-(benzylamino)-2-(4-fluoroanilino)benzoic acid] | 67 |
| O=C(O)c1ccc(NCCCc2ccccc2)cc1Nc1ccc(F)cc1 [Example 69, 2-(4-Fluoroanilino)-4-((3-phenylpropyl)amino)benzoic acid] | 94 |
| O=C(O)c1ccc(CCCc2ccccc2)cc1Nc1ccc(F)cc1 [Example 81, 2-(4-fluoroanilino)-4-(3-phenylpropyl)benzoic acid] | 97 |
| O=C(O)c1ccc(NC(=O)c2csc3ccccc23)cc1Nc1ccc(F)cc1 [Example 87, 4-(benzothiophene-3-carboxamido)-2-(4-fluoroanilino)benzoic acid] | 97 |
| O=C(O)c1ccc(NS(=O)(=O)c2ccccc2)cc1Nc1ccc(F)cc1 [Example 91, 4-(Benzenesulfonamido)-2-(4-fluoroanilino)benzoic acid] | 53 |
| O=C(O)c1ccc(/C=C/c2cccc(O)c2)cc1Nc1ccc(F)cc1 [Example 126, 2-(4-fluoroanilino)-4-((E)-2-(3-hydroxyphenyl)vinyl)benzoic acid] | 94 |
| O=C(O)c1ccc(/C=C/c2ccc(F)cc2)cc1Nc1ccc(F)cc1 [Example 132, 2-(4-Fluoroanilino)-4-((E)-2-(4-fluorophenyl)vinyl)benzoic acid] | 95 |
| O=C(O)c1ccc(/C=C/c2ccc3c(c2)OCO3)cc1Nc1ccc(F)cc1 [Example 140, 4-((E)-2-(Benzo-1,3-dioxol-5-yl)vinyl)-2-(4-fluoroanilino)benzoic acid] | 93 |
| COc1ccc(CCc2ccc(C(=O)O)c(Nc3ccc(F)cc3)c2)cc1 [Example 160, 2-(4-Fluoroanilino)-4-(2-(4-methoxyphenyl)ethyl)benzoic acid] | 93 |

| Compound | inhibition at 30 µM [%] |
| --- | --- |
| COc1cccc(CCc2ccc(C(=O)O)c(Nc3ccc(F)cc3)c2)c1 [Example 166, 2-(4-Fluoroanilino)-4-(2-(3-methoxyphenyl)ethyl)benzoic acid] | 92 |
| O=C(O)c1ccc(CCc2ccccc2)cc1Nc1ccccc1C(F)(F)F [Example 169, 4-phenethyl-2-(2-(trifluoromethyl)anilino)benzoic acid] | 97 |
| O=C(O)c1ccc(CCc2ccccc2)cc1Nc1ccc(C(F)(F)F)cc1 [Example 170, 4-Phenethyl-2-(4-(trifluoromethyl)anilino)benzoic acid] | 97 |
| Cc1ccc(Nc2cc(CCc3ccccc3)ccc2C(=O)O)c(C)c1 [Example 172, 2-(2,4-Dimethylanilino)-4-phenethylbenzoic acid] | 97 |
| Cc1cccc(Nc2cc(CCc3ccccc3)ccc2C(=O)O)c1C [Example 173, 2-(2,3-Dimethylanilino)-4-phenethylbenzoic acid] | 97 |
| COc1ccccc1Nc1cc(CCc2ccccc2)ccc1C(=O)O [Example 181, 2-(2-Methoxyanilino)-4-phenethylbenzoic acid] | 97 |
| COc1ccc(Nc2cc(-c3ccccc3)ccc2C(=O)O)cc1 [Example 185, 2-(4-methoxyanilino)-4-phenylbenzoic acid] | 79 |
| O=C(O)c1ccc(-c2ccccc2)cc1Nc1ccc(OC(F)(F)F)cc1 [Example 190, 4-Phenyl-2-(4-(trifluoromethoxy)anilino)benzoic acid] | 97 |
| O=C(O)c1ccc(-c2ccccc2)cc1Nc1cccc(OC(F)(F)F)c1 [Example 191, 4-Phenyl-2-(3-(trifluoromethoxy)anilino)benzoic acid] | 97 |
| O=C(O)c1ccc(CCc2ccccc2)cc1Nc1ccccc1OC(F)(F)F [Example 199, 4-Phenethyl-2-(2-(trifluoromethoxy)anilino)benzoic acid] | 97 |
| O=C(O)c1ccc(CCc2ccccc2)cc1Nc1cccc(Cl)c1 [Example 200, 2-(3-chloroanilino)-4-phenethylbenzoic acid] | 97 |
| COc1ccc(-c2ccc(C(=O)O)c(Nc3ccc(F)cc3)c2)cc1OC [Example 209, 4-(3,4-Dimethoxyphenyl)-2-(4-fluoroanilino)benzoic acid] | 82 |
| Cc1ccc(-c2ccc(C(=O)O)c(Nc3ccc(F)cc3)c2)cc1C [Example 214, 4-(3,4-Dimethylphenyl)-2-(4-fluoroanilino)benzoic acid] | 98 |
| O=C(O)c1ccc(-c2ccccc2OC(F)(F)F)cc1Nc1ccc(F)cc1 [Example 220, 2-(4-Fluoroanilino)-4-(2-(trifluoromethoxy)phenyl)benzoic acid] | 98 |
| O=C(O)c1ccc(-c2ccc(OC(F)(F)F)cc2)cc1Nc1ccc(F)cc1 [Example 222, 2-(4-Fluoroanilino)-4-(4-(trifluoromethoxy)phenyl)benzoic acid] | 98 |
| O=C(O)c1ccc(-c2ccc3occc3c2)cc1Nc1ccc(F)cc1 [Example 225, 4-(Benzofuran-5-yl)-2-(4-fluoroanilino)benzoic acid] | 98 |
| O=C(O)c1ccc(-c2cccc3[nH]ccc23)cc1Nc1ccc(F)cc1 [Example 234, 2-(4-fluoroanilino)-4-(1H-indol-4-yl)benzoic acid] | 97 |
| O=C(O)c1ccc(N2CCc3ccccc32)cc1Nc1ccc(F)cc1 [Example 243, 2-(4-fluoroanilino)-4-(indolin-1-yl)benzoic acid] | 97 |
| O=C(O)c1ccc(-n2cnc3ccccc32)cc1Nc1ccc(F)cc1 [Example 248, 4-(1H-benzimidazol-1-yl)-2-(4-fluoroanilino)benzoic acid trifluoroacetate] | 84 |
| Cc1ccc(CCc2ccc(C(=O)O)c(Nc3ccc(F)cc3)c2)cc1 [Example 252, 2-(4-Fluoroanilino)-4-(2-(4-methylphenyl)ethyl)benzoic acid] | 96 |
| O=C(O)c1ccc(CCc2ccc(OC(F)(F)F)cc2)cc1Nc1ccc(F)cc1 [Example 259, 2-(4-fluoroanilino)-4-(2-(4-(trifluoromethoxy)phenyl)ethyl)benzoic acid] | 96 |
| CC(=O)Nc1cccc(CCc2ccc(C(=O)O)c(Nc3ccc(F)cc3)c2)c1 [Example 262, 4-(2-(3-Acetamidophenyl)ethyl)-2-(4-fluoroanilino)benzoic acid] | 80 |
| O=C(O)c1ccc(-c2cccc(Cl)c2)cc1Nc1cccc(O)c1 [Example 271, 4-(3-chlorophenyl)-2-((3-hydroxyphenyl)amino)benzoic acid] | 97 |
| Cc1ccccc1Nc1cc(-c2ccc(NS(C)(=O)=O)cc2)ccc1C(=O)O [Example 273, 4-(4-(methanesulfonamido)phenyl)-2-(2-methylanilino)benzoic acid] | 83 |
